Assay results reported in US8759049B2, “Method for the production of a fermentation product from a sugar hydrolysate” (Iogen Energy Corporation, priority 2010, dated 2014).

Legend:
Type in all cases: cell-based
[1] = tested on: bacteria that proliferated in the industrial fermentation (contaminated yeast cream); assay: Bacterial plate counts of contaminated yeast cream after acid and/or chlorine dioxide treatment (lab scale, Examples 1.1 and 1.2); settings: for reduction of bacterial population: yeast cream first lowered to pH 2.0 with sulfuric acid, 5 minutes
Description: A yeast cream (also referred to herein as a “yeast slurry”) separated from the fermentation broth and contaminated with bacteria that proliferated in the industrial fermentation was treated at 20° C. with acid alone, chlorine dioxide alone or a combination of the two. In the acid treated condition, the pH was lowered from 5.0 to 2.0 with sulfuric acid. In the chlorine dioxide treated condition, a concentrated stock of chlorine dioxide in water (10,000 ppm) was prepared by passing a mixture of chlorine and nitrogen gas through sodium chlorite columns. The resulting ClO2 gas was sparged into 4 L of cold de-ionized water until the desired concentration was reached. This chlorine dioxide solution was used to treat the yeast cream.
In the combination treatment, the yeast cream was first lowered to pH 2.0 with sulfuric acid for 5 minutes and subsequently treated with the indicated bolus dose of chlorine dioxide for 5 minutes. In cases where the pH was lowered, the yeast cream was titrated back to 5.0 with sodium hydroxide after 10 minutes and prior to plating for bacterial enumeration. The duration of acid exposure was limited to 10 minutes to match the duration of exposure for the other treatments.
Bacterial colonies were enumerated via standard plate count methods. In order to selectively plate bacterial colonies and inhibit yeast growth, tryptic soy agar plates (15 g/L pancreatic digest of casein, 5 g/L enzymatic digest of soybean meal, 5 g/L sodium chloride and 15 g/L agar) with 100 mg/L cycloheximide were used. Samples were serially diluted into sterile saline (0.9% NaCl w/v) prior to plating.
Contaminated yeast cream obtained from the fermentation of Example 1.1 was titrated to pH 2.0 with sulfuric acid, treated with various concentrations of chlorine dioxide (0, 50, 100, 150 and 200 ppm) and plated to determine the bacterial reduction at pH 2.0 as outlined above, with the exception that the temperature of the treatment was 30° C. rather than 20° C. Bacterial populations were enumerated as previously described (Example 1.1). Bacterial populations were also enumerated on a control sample that was not subjected to chlorine dioxide or pH titration.

[2] = tested on: contaminated yeast cream (Saccharomyces cerevisiae yeast strain with bacterial contaminants); assay: Yeast fermentation performance in lignocellulosic hydrolysate after treatment of contaminated yeast cream
Description: Yeast fermentation performance was evaluated by inoculating the contaminated control yeast, acid-treated yeast and combination acid-chlorine dioxide treated yeast creams (treated as set forth in Example 1.1) into 400 mL of lignocellulosic hydrolysate. The lignocellulosic hydrolysate was produced as set forth in Example 1.1. Prior to inoculation, the media was sparged with pure CO2 for two minutes to ensure anaerobicity. Cells were allowed to ferment at 30° C., 150 rpm until sugar exhaustion. CO2 production was monitored for the course of the fermentation and samples were taken for dry cell weight and HPLC analysis.
The samples were analyzed for cell mass using dry cell weight (Rice et al. (1980) Am. Soc. Brew. Chem. J. 38:142-45, which is incorporated herein by reference). For the fermentability analysis, samples were taken from the bioreactors using a 10 mL syringe. From each sample, cells in 2 mL culture samples were pelleted by centrifugation and the supernatant decanted and filtered through a 0.2 μm syringe filter. Each supernatant sample was diluted with 5 mM sulfuric acid. All dilutions were analyzed for glucose, xylose, xylitol, glycerol, and ethanol content on the Agilent 1100 Series Refractive Index Detector HPLC, while acetic and lactic acid were analyzed concurrently using an Agilent 1200 Series Variable Wavelength Detector HPLC. The column used for separation was the Varian Metacarb 87H Organic Acid column, maintained at 50° C. with a 5 mM sulfuric acid mobile phase at a flow rate of 0.6 mL/min. The unit was equipped with the 1100 Series Auto-sampler and Pumping System and controlled with the Chemstation software.

[3] = tested on: bacteria contaminating yeast cream; assay: Bacterial plate counts of yeast cream in industrial scale operation before and after treatment
Description: A volume of 100,000 L whole fermentation broth was separated into a beer fraction and a yeast cream after completion of the fermentation. The yeast cream was concentrated to approximately 170 g dry cell weight/L. Prior to recycle into the next fermentation batch, the yeast cream contaminated with bacteria was treated at 20° C. with acid alone (batch 1) or treated with acid in combination with chlorine dioxide (batch 2). […] Chlorine dioxide was generated in concentrated form at a nominal concentration of 2700 ppm using a system commercially available from Pureline, Palatine, Ill. In the combination treatment, the acidity of the yeast cream was first lowered to pH 2.0 (as per Example 1.1) and subsequently treated at a bolus dose of 200 ppm chlorine dioxide with a residence time of approximately 45 seconds. After treatment, the yeast cream was fed back into the fermentation.

[4] = tested on: Saccharomyces cerevisiae yeast strain; assay: Yeast cell counts (viability) of yeast cream after acid and/or chlorine dioxide treatment
Description: A sample of the yeast cream from Example 1.1 was plated for yeast growth after the treatments outlined therein. […] Selective yeast growth was enabled by serially diluting the cream in sterile saline (0.9% NaCl w/v) and plating on YM plates (10 g/L glucose, 5 g/L peptone, 3 g/L yeast extract, 3 g/L malt extract, 20 g/L agar) containing 34 mg/L chloramphenicol to inhibit bacterial growth.

SMILES | reduction of contamination in yeast cream ([1]; 100 ppm chlorine dioxide, pH 2, 30° C.) | decrease of bacterial counts ([1]; 200 ppm chlorine dioxide, pH 2, 30° C.) | reduction of bacterial population ([1]; 200 ppm chlorine dioxide, 20° C.) | reduction of bacterial counts ([1]; 500 ppm chlorine dioxide, room temperature, as restated in Example 1.2 (see FIG. 2)) [fold] | reduction of bacterial population ([1]; 500 ppm chlorine dioxide, 20° C.) | effect of increasing chlorine dioxide dose on bacterial populations ([1]; pH 5.0, 0, 200 and 500 ppm, 20° C., no acid) | xylose consumption rate in lignocellulosic hydrolysate ([2]; combination acid-chlorine dioxide treatment (pH 2, 200 and 500 ppm) versus untreated control, change greater than with acid alone) | ethanol yield ([2]; combination acid-chlorine dioxide treatment versus untreated control, change greater than with acid alone) | decrease of bacterial contamination counts ([3]; pH 2.0 with sulfuric acid then 200 ppm chlorine dioxide, about 45 seconds, 20° C., industrial scale (batch 2)) | effect of increasing chlorine dioxide dose on fermentation yeast populations ([4]; 0, 200, 500 ppm, regardless of the pH of the treatment (pH 5 or pH 2)) | viability of the fermentation yeast culture ([4]; combination of acid (pH 2) and chlorine dioxide 200 and 500 ppm, 20° C.) | reduction of bacterial population by acid alone (pH control) ([1]; pH 2.0, no chlorine dioxide, 30° C.) | reduction of bacterial population by lowering the pH alone ([1]; pH 2.0 with sulfuric acid, 0 ppm chlorine dioxide, 20° C., 10 minutes) | ethanol yield ([2]; acid treatment alone (pH 2) versus untreated control) | xylose consumption rate in lignocellulosic hydrolysate ([2]; acid treatment alone (pH 2) versus untreated control, equivalent cell concentrations, 30° C.) | reduction of bacterial contamination counts ([3]; sulfuric acid alone to pH 2.0, 20° C., industrial scale (batch 1)) | viability of the fermentation yeast culture ([4]; acid treatment alone, pH 2, 20° C.)
[O][Cl+][O-] [chlorine dioxide] | 10^2 CFU/mL | greater than 10^5 CFU/mL | 10^2 CFU/mL | 100 | 10^3 CFU/mL | negligible effect | relative decrease | increase | 10^4 CFU/mL | negligible effect | not affected |  |  |  |  |  | 
O=S(=O)(O)O [sulfuric acid] |  |  |  |  |  |  |  |  |  |  |  | did not reduce | does not significantly reduce | increase | relative decrease | 10^2 CFU/mL | not affected
